Test results from US20240118287A1, “ANALYSIS PLATE FOR A MASS SPECTROMETRY ANALYSIS AND ASSOCIATED METHOD FOR CHARACTERIZING MICROORGANISMS BY MASS SPECTROMETRY” (priority 2021, published 2024).
In brackets after ≈: the same amount, converted by molar mass.

Experiments:
Format in all cases: cell-based
[1] = system: Ref 1 K. pneumoniae; test: MIC by microdilution in broth, reference strain Ref 1; design: key to Phenotype (R = resistant, S = sensitive): RA signifies resistance to amoxicillin; RC signifies resistance to ceftriaxone; RM signifies resistance to meropenem; RO resistance to oxacillin; SA signifies sensitive to amoxicillin; SC signifies sensitive to ceftriaxone; SM signifies sensitive to meropenem; SO sensitive to oxacillin; conditions: for Phenotype (R = resistant, S = sensitive): KPC-2; for MIC: Klebsiella pneumoniae, KPC-2, microdilution in broth, read-out: Minimum inhibitory concentration (MIC in μg/ml)
Description: (§1) The minimum inhibitory concentration (MIC in μg/ml) was determined by microdilution in broth, a technique very widely used by a person skilled in the art.

[2] = system: Ref 2 K. pneumoniae; test: MIC by microdilution in broth, reference strain Ref 2; design: key to Phenotype (R = resistant, S = sensitive): RA signifies resistance to amoxicillin; RC signifies resistance to ceftriaxone; RM signifies resistance to meropenem; RO resistance to oxacillin; SA signifies sensitive to amoxicillin; SC signifies sensitive to ceftriaxone; SM signifies sensitive to meropenem; SO sensitive to oxacillin; conditions: for MIC: Klebsiella pneumoniae, OXA-48, microdilution in broth, read-out: Minimum inhibitory concentration (MIC in μg/ml); for Phenotype (R = resistant, S = sensitive): OXA-48
Description: as §1

[3] = system: Ref 3 E. coli; test: MIC by microdilution in broth, reference strain Ref 3; design: key to Phenotype (R = resistant, S = sensitive): RA signifies resistance to amoxicillin; RC signifies resistance to ceftriaxone; RM signifies resistance to meropenem; RO resistance to oxacillin; SA signifies sensitive to amoxicillin; SC signifies sensitive to ceftriaxone; SM signifies sensitive to meropenem; SO sensitive to oxacillin; conditions: for MIC: Escherichia coli, TEM-2, microdilution in broth, read-out: Minimum inhibitory concentration (MIC in μg/ml); for Phenotype (R = resistant, S = sensitive): TEM-2
Description: as §1

[4] = system: Ref 4 E. coli; test: MIC by microdilution in broth, reference strain Ref 4; design: key to Phenotype (R = resistant, S = sensitive): RA signifies resistance to amoxicillin; RC signifies resistance to ceftriaxone; RM signifies resistance to meropenem; RO resistance to oxacillin; SA signifies sensitive to amoxicillin; SC signifies sensitive to ceftriaxone; SM signifies sensitive to meropenem; SO sensitive to oxacillin; conditions: for MIC: Escherichia coli, microdilution in broth, read-out: Minimum inhibitory concentration (MIC in μg/ml)
Description: as §1

[5] = system: Ref 5 E. coli; test: MIC by microdilution in broth, reference strain Ref 5; design: key to Phenotype (R = resistant, S = sensitive): RA signifies resistance to amoxicillin; RC signifies resistance to ceftriaxone; RM signifies resistance to meropenem; RO resistance to oxacillin; SA signifies sensitive to amoxicillin; SC signifies sensitive to ceftriaxone; SM signifies sensitive to meropenem; SO sensitive to oxacillin; conditions: CTX-M; for MIC: Escherichia coli, microdilution in broth, read-out: Minimum inhibitory concentration (MIC in μg/ml)
Description: as §1

[6] = system: Isolate 1 (Escherichia coli); test: Resistance characterization on functionalized analysis plate, MALDI-TOF (Example 4); conditions: threshold identification probability ≥90% for at least 3 deposits out of 4, amoxicillin 2, ceftriaxone 24, meropenem 2 μg/ml
Description: (§2) This cassette comprises a gasket so as to be able to dispose the analysis plate on a sponge impregnated to saturation with Muller-Hinton culture medium. The sponge impregnated with a culture medium serves as a support, and it is made of porous material as described in the description.
(§3) A cover was placed on the cassette containing the analysis plate so as to be clipped on the cassette and close the device without touching the top of the drops.
(§4) The analysis cassettes thus prepared were incubated in the stove at 37° C. for 2, 3, 4 or 5 hours.
(§5) At the end of the incubation step, the analysis plates are placed on very absorbent, dry blotting paper, with an absorption capacity of 25 μL·cm^−2, so that the drops present on the analysis plate are aspirated by capillarity through the analysis zones made of porous material.
(§6) 1 μl of HCCA matrix, alpha-cyano 4-hydroxycinnamic acid (VITEK®MS-CHCA, bioMérieux reference 411071) was deposited on the analysis zones, comprising the microorganisms and the antimicrobial agent, and on the calibration zones comprising the calibrant.
(§7) The analysis plate is then dried and analyzed by VITEK®MS as described in example 1.
(§8) The isolates identified in example 1 were diluted to 0.5 McFarland (McF) in Muller-Hinton medium (bioMérieux reference AEB 110699), then diluted again to 1/100° for the Gram-negative bacteria and to 1/10° for the Gram-positive bacteria, always in Muller-Hinton medium.
(§9) Drops of 2 μl of the final dilutions were deposited on the analysis zones of the analysis plates according to the invention as described in example 2. As before, the dilutions of E. coli and of K. pneumoniae were analyzed on the targets with 16 deposits of amoxicillin, 16 deposits of ceftriaxone and 16 deposits of meropenem. The dilutions of Staphylococci were analyzed on the targets with 2 μg/ml of oxacillin.
(§10) The analysis was carried out according to the same procedure as in example 3 with an incubation of 4 h for all the microorganisms. Moreover, the results were interpreted as in example 3, i.e. with a threshold of identification probability greater than or equal to 90% for at least 3 deposits out of 4.

[7] = system: Isolate 3 (Escherichia coli); test: as above; conditions: threshold identification probability ≥90% for at least 3 deposits out of 4, amoxicillin 2, ceftriaxone 24, meropenem 2 μg/ml
Description: as §2, §3, §4, §5, §6, §7, §8, §9, §10

[8] = system: Isolate 5 (Escherichia coli); test: as above; conditions: isolate 5 (E. coli); threshold identification probability ≥90% for at least 3 deposits out of 4; amoxicillin 2, ceftriaxone 24, meropenem 2 μg/ml
Description: as §2, §3, §4, §5, §6, §7, §8, §9, §10

[9] = system: Isolate 7 (Klebsiella pneumoniae); test: as above; conditions: isolate 7 (K. pneumoniae); threshold identification probability ≥90% for at least 3 deposits out of 4; amoxicillin 2, ceftriaxone 24, meropenem 2 μg/ml
Description: as §2, §3, §4, §5, §6, §7, §8, §9, §10

[10] = system: Isolate 8 (Klebsiella pneumoniae); test: as above; conditions: isolate 8 (K. pneumoniae); threshold identification probability ≥90% for at least 3 deposits out of 4; amoxicillin 2, ceftriaxone 24, meropenem 2 μg/ml
Description: as §2, §3, §4, §5, §6, §7, §8, §9, §10

[11] = system: Ref 6 S. aureus; test: MIC by microdilution in broth, reference strain Ref 6; design: key to Phenotype (R = resistant, S = sensitive): RA signifies resistance to amoxicillin; RC signifies resistance to ceftriaxone; RM signifies resistance to meropenem; RO resistance to oxacillin; SA signifies sensitive to amoxicillin; SC signifies sensitive to ceftriaxone; SM signifies sensitive to meropenem; SO sensitive to oxacillin
Description: as §1

[12] = system: Ref 7 S. aureus; test: MIC by microdilution in broth, reference strain Ref 7; design: key to Phenotype (R = resistant, S = sensitive): RA signifies resistance to amoxicillin; RC signifies resistance to ceftriaxone; RM signifies resistance to meropenem; RO resistance to oxacillin; SA signifies sensitive to amoxicillin; SC signifies sensitive to ceftriaxone; SM signifies sensitive to meropenem; SO sensitive to oxacillin; conditions: mecA
Description: as §1

[13] = system: Isolate 10 (Staphylococcus aureus); test: Resistance characterization on functionalized analysis plate, MALDI-TOF (Example 4); conditions: isolate 10 (S. aureus); oxacillin 2 μg/ml; threshold identification probability ≥90% for at least 3 deposits out of 4
Description: as §2, §3, §4, §5, §6, §7, §8, §9
(§11) When no sample deposit was provided on an analysis zone, this zone is covered with a Parafilm M plastic film (Bemis North America) before putting the analysis plate in the cassette. In this way, the analysis zone was not brought into contact with the culture medium contained in the sponge impregnated to saturation. The positions unused in the first analysis thus remained usable for a subsequent analysis.
as §10

[14] = system: Isolate 11 (Staphylococcus aureus); test: as above; conditions: isolate 11 (S. aureus); oxacillin 2 μg/ml; threshold identification probability ≥90% for at least 3 deposits out of 4
Description: as §2, §3, §4, §5, §6, §7, §8, §9, §11, §10

[15] = system: Isolate 12 (Staphylococcus epidermidis); test: as above; conditions: isolate 12 (S. epidermidis); oxacillin 2 μg/ml; threshold identification probability ≥90% for at least 3 deposits out of 4
Description: as §2, §3, §4, §5, §6, §7, §8, §9, §11, §10

[16] = system: Isolate 9 (Staphylococcus aureus); test: as above; conditions: isolate 9 (S. aureus); oxacillin 2 μg/ml; threshold identification probability ≥90% for at least 3 deposits out of 4
Description: as §2, §3, §4, §5, §6, §7, §8, §9, §11, §10

[17] = system: Isolate 10 (Staphylococcus aureus); test: MIC determination on analysis plate with oxacillin concentration range, MALDI-TOF (Example 5); conditions: read-out: MIC by the method of the invention
Description: as §4, §5, §6, §7
(§12) The dilutions of Staphylococci of the reference strains and of the isolates were analyzed on the analysis plates according to the invention with 4 deposits of oxacillin at 0.125 μg/ml, 4 deposits of oxacillin at 0.25 μg/ml, 4 deposits of oxacillin at 0.5 μg/ml, 4 deposits of oxacillin at 1 μg/ml, 4 deposits of oxacillin at 2 μg/ml, 4 deposits of oxacillin at 4 μg/ml, 4 deposits of oxacillin at 8 μg/ml, 4 deposits of oxacillin at 16 μg/ml, 4 deposits of oxacillin at 32 μg/ml, 4 deposits of oxacillin at 64 μg/ml, 4 deposits of oxacillin at 128 μg/ml, 4 deposits of oxacillin at 256 μg/ml.

[18] = system: Isolate 11 (Staphylococcus aureus); test: as above; conditions: read-out: MIC by the method of the invention
Description: as §4, §5, §6, §7, §12

[19] = system: Isolate 12 (Staphylococcus epidermidis); test: as above; conditions: read-out: MIC by the method of the invention
Description: as §4, §5, §6, §7, §12

[20] = system: Isolate 9 (Staphylococcus aureus); test: as above; conditions: read-out: MIC by the method of the invention
Description: as §4, §5, §6, §7, §12

[21] = system: Reference strain No. 6 (S. aureus); test: as above
Description: as §4, §5, §6, §7, §12

[22] = system: reference strain No. 7 (S. aureus); test: as above
Description: as §4, §5, §6, §7, §12

[23] = Staphylococcus aureus, microdilution in broth, read-out: Minimum inhibitory concentration (MIC in μg/ml)

MIC [1] [µg/mL]	MIC [2] [µg/mL]	MIC [3] [µg/mL]	MIC [4] [µg/mL]	MIC [5] [µg/mL]	Structure (SMILES)	Phenotype (R = resistant, S = sensitive) [1]	Phenotype (R = resistant, S = sensitive) [2]	Phenotype (R = resistant, S = sensitive) [3]	Phenotype (R = resistant, S = sensitive) [4]	Phenotype (R = resistant, S = sensitive) [5]	Isolate characterized as resistant or sensitive to the antibiotic [6]	Isolate characterized as resistant or sensitive to the antibiotic [7]	Isolate characterized as resistant or sensitive to the antibiotic [8]	Isolate characterized as resistant or sensitive to the antibiotic [9]	Isolate characterized as resistant or sensitive to the antibiotic [10]	other results
> 128	64 (≈ 175 µM)	32 (≈ 87.6 µM)	1 (≈ 2.74 µM)	> 128	CC1(C)S[C@@H]2[C@H](NC(=O)[C@H](N)c3ccc(O)cc3)C(=O)N2[C@H]1C(=O)O [Amoxicillin, amoxicillin]	RA	RA	RA	SA	RA	resistant	resistant	resistant	resistant	resistant	
64 (≈ 115 µM)	32 (≈ 57.7 µM)	16 (≈ 28.9 µM)	0.25 (≈ 0.451 µM)	8 (≈ 14.4 µM)	CO/N=C(\C(=O)N[C@@H]1C(=O)N2C(C(=O)O)=C(CSc3nc(=O)c(=O)[nH]n3C)CS[C@H]12)c1csc(N)n1 [Ceftriaxone, ceftriaxone]	RC	RC	RC	SC	RC	sensitive	resistant	sensitive	sensitive	resistant	
					Cc1onc(-c2ccccc2)c1C(=O)N[C@@H]1C(=O)N2[C@@H]1SC(C)(C)[C@@H]2C(=O)O [Oxacillin, oxacillin]											Phenotype (R = resistant, S = sensitive) [11]: SO; MIC [11, 23]: 0.25 µg/mL (≈ 0.623 µM); MIC [12, 23]: 128 µg/mL (≈ 319 µM); Phenotype (R = resistant, S = sensitive) [12]: RO; Isolate characterized as resistant or sensitive to the antibiotic [13]: sensitive; Isolate characterized as resistant or sensitive to the antibiotic [14]: sensitive; Isolate characterized as resistant or sensitive to the antibiotic [15]: sensitive; Isolate characterized as resistant or sensitive to the antibiotic [16]: resistant; MIC [17]: 0.25 µg/mL (≈ 0.623 µM); MIC [18]: 0.5 µg/mL (≈ 1.25 µM); MIC [19]: 0.125 µg/mL (≈ 0.311 µM); MIC [20]: 16 µg/mL (≈ 39.9 µM); MIC ([21]; Staphylococcus aureus, equals Table 2 MIC, read-out: MIC, lowest growth inhibiting concentration observed by the method of the invention): 0.25 µg/mL (≈ 0.623 µM); Identification as S. aureus ([21]; higher concentrations of oxacillin (above 0.25 μg/ml)): not identified; Identification probability as S. aureus ([21]; oxacillin 0.125 μg/ml, in 3 deposits out of 4): greater than 99.9%; Identification probability as S. aureus ([21]; oxacillin 0.25 μg/ml, for 1 deposit out of 4): greater than 99.9%; MIC ([22]; Staphylococcus aureus, compliant with Table 2, read-out: MIC by the method of the invention): 128 µg/mL (≈ 319 µM); Identification probability as S. aureus ([22]; oxacillin 0.125 at 64 μg/ml): 99.9%; Identification as S. aureus ([22]; oxacillin 128 and 256 μg/ml): not identified
64 (≈ 167 µM)	0.25 (≈ 0.652 µM)	0.5 (≈ 1.3 µM)	0.06 (≈ 0.156 µM)	0.5 (≈ 1.3 µM)	C[C@@H](O)[C@H]1C(=O)N2C(C(=O)O)=C(S[C@@H]3CN[C@H](C(=O)N(C)C)C3)[C@H](C)[C@H]12 [Meropenem, meropenem]	RM	SM	SM	SM	SM	sensitive	sensitive	sensitive	sensitive	sensitive	
